From ChEMBL document CHEMBL3822384, “2-(3-Methoxyphenyl)quinazoline Derivatives: A New Class of Direct Constitutive Androstane Receptor (CAR) Agonists” (J Med Chem, 2016)
Active and inactive are the calls of the source. No cut-off for these calls is given here.

Key:
AHR = molecular target: T1, AHR (Homo sapiens, UniProt P35869); experiment: (§1) Agonist activity at AHR expressed in human HepG2 cells after 24 hrs by pXRE-luciferase reporter gene assay; type: cell-based; settings: human, HepG2 cells expressing AHR; read-out: Imax
T1 sequence (P35869 whole entry): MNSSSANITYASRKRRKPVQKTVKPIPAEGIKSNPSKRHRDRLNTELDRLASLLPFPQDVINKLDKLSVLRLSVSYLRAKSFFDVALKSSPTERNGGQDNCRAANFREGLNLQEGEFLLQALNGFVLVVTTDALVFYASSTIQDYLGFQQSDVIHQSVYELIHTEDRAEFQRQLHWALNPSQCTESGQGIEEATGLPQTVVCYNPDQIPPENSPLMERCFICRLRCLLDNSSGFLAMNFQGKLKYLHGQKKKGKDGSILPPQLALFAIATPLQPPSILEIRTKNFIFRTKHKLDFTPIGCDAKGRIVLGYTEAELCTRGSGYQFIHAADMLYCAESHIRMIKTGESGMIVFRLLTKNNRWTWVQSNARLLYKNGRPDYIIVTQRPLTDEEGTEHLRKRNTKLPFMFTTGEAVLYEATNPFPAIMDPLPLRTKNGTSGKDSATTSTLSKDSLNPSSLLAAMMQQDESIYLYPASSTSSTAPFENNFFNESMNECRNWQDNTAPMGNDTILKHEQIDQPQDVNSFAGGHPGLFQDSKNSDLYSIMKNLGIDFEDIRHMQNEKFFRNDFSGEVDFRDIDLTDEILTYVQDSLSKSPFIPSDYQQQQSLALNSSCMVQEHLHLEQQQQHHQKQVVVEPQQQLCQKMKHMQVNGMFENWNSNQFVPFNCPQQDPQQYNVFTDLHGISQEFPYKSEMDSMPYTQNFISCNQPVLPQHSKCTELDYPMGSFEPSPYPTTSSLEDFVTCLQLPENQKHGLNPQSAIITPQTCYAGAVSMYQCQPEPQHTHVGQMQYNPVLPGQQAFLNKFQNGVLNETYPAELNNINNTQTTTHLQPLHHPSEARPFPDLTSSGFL

[1] = molecular target: T2, Aryl hydrocarbon receptor (Homo sapiens, UniProt P35869); experiment: as §1; type: cell-based
T2 sequence (P35869 whole entry): T1 sequence (P35869 whole entry)

Cytochrome P450 1A2 = molecular target: T3, Cytochrome P450 1A2 (Homo sapiens, UniProt P05177); experiment: Inhibition of recombinant human CYP1A2 by P450-Glo luminescence assay; type: ADME
T3 sequence (P05177 whole entry): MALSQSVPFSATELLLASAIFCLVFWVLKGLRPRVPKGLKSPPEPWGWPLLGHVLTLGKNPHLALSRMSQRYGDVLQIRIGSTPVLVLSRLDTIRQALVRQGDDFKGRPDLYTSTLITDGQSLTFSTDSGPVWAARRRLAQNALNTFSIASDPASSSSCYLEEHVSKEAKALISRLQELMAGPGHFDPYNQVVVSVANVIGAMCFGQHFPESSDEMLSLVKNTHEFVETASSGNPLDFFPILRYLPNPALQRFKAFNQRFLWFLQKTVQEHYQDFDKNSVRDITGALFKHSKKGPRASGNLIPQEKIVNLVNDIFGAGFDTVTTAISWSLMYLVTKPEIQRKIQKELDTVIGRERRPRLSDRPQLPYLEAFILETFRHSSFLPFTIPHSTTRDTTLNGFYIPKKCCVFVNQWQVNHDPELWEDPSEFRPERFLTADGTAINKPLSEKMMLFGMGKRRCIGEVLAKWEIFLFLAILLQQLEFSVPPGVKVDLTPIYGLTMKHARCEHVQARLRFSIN

Cytochrome P450 2C9 = Cytochrome P450 2C9 (Homo sapiens, UniProt P11712); experiment: Inhibition of recombinant human CYP2C9 by P450-Glo luminescence assay; type: ADME
Cytochrome P450 2C9, sequence (P11712 whole entry, the tested form may be a part): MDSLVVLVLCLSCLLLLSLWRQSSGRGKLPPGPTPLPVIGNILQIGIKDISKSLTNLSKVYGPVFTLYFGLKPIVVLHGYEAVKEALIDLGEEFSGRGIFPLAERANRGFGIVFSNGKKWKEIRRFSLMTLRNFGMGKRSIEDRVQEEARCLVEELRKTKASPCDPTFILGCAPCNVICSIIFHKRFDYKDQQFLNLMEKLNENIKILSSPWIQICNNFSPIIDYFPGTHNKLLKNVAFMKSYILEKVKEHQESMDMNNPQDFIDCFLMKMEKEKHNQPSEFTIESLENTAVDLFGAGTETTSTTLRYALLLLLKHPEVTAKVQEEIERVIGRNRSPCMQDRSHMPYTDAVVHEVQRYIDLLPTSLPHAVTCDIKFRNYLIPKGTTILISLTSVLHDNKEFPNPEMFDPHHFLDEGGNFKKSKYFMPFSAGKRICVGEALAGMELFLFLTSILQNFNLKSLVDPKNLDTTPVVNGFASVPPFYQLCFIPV

[2] = molecular target: T4, Nuclear receptor subfamily 1 group I member 3 (Homo sapiens, UniProt Q14994); experiment: Agonist activity at human GAL4-fused CAR LBD (108 to 348 residues) expressed in human HepG2 cells assessed as receptor binding to SRC1-VP16 fusion protein at 5 to 20 uM after 24 hrs by luciferase reporter gene assay; type: cell-based; settings: hepg2, 24 h
T4 sequence (Q14994 whole entry): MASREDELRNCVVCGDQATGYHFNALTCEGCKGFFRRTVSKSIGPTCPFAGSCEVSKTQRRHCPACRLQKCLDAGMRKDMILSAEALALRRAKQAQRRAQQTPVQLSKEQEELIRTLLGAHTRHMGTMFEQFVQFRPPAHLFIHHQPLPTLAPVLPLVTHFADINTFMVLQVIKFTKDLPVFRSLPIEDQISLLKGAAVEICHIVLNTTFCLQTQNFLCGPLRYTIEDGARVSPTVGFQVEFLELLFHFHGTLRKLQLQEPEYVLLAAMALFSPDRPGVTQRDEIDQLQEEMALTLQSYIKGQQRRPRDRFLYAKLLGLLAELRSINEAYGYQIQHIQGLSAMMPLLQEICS

[3] = molecular target: T4, Nuclear receptor subfamily 1 group I member 3; experiment: Agonist activity at CAR LBD (108 to 348 residues) expressed in human HepG2 cells assessed as receptor binding to PGC1alpha by lanthascreenTR-FRET coactivator assay
[4] = molecular target: T5, Vitamin D3 receptor (Homo sapiens) (UniProt P11473); experiment: Agonist activity at VDR in human primary hepatocytes assessed as upregulation of CYP2C9 mRNA expression at 10 uM after 24 hrs by qRT-PCR method; type: cell-based; settings: Hepatocyte
T5 sequence (whole entry): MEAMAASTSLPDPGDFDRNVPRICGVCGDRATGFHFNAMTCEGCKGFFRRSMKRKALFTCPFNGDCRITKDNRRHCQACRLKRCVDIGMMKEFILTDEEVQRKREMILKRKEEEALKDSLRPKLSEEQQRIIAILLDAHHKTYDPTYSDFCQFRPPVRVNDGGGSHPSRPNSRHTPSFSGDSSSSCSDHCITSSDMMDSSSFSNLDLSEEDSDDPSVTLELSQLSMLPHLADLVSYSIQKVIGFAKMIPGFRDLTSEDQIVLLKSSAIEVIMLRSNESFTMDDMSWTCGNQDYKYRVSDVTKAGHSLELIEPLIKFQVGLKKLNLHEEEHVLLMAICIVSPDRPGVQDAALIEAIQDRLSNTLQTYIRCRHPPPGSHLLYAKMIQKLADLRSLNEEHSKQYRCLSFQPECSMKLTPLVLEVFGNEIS

[5] = molecular target: T2, Aryl hydrocarbon receptor; experiment: Agonist activity at AHR in human HepaRG cells assessed as upregulation of CYP1B1 mRNA expression at 10 uM after 24 hrs by qRT-PCR method; type: cell-based

`COc1cccc(-c2nc(SC)c3ccccc3n2)c1` was tested. Which Emax at 24 h (AHR) did it give?
The Emax at 24 h was 219%.

And the EC50 [1]?
The EC50 was 2300 nM.

What about the IC50 (Cytochrome P450 1A2) of the same molecule?
The IC50 was 420 nM.

And the IC50 (Cytochrome P450 2C9)?
The IC50 was 4190 nM.

What about the Activity [2] of the same molecule?
The Activity was “Active”.

And the EC50 [3]?
Its EC50 is 5120 nM.

What about the Activity [4] of the same molecule?
Its Activity is “Active”.

What about the Activity [5] of the same molecule?
Its Activity is “Active”.

With `COc1cccc(-c2nc(OC)c3ccccc3n2)c1` as the molecule, how does the Emax at 24 h (AHR) read?
The Emax at 24 h was 290%.

What about the EC50 [1] of the same molecule?
Its EC50 is 7300 nM.

What about the IC50 (Cytochrome P450 1A2) of the same molecule?
Its IC50 is 180 nM.

And the IC50 (Cytochrome P450 2C9)?
The IC50 was 5030 nM.

What about the Activity [2] of the same molecule?
Its Activity is “Active”.

And the EC50 [3]?
Its EC50 is 2070 nM.

And the Activity [4]?
The Activity was “Active”.

And the Activity [5]?
Its Activity is “Active”.

`COc1cccc(-c2nc3ccccc3c(=S)[nH]2)c1` was tested. Which Emax at 24 h (AHR) did it give?
The Emax at 24 h was 266%.

What about the EC50 [1] of the same molecule?
Its EC50 is 630 nM.

And the IC50 (Cytochrome P450 1A2)?
The IC50 was 750 nM.

What about the IC50 (Cytochrome P450 2C9) of the same molecule?
Its IC50 is 11000 nM.

And the Activity [2]?
The Activity was “Active”.

And the EC50 [3]?
The EC50 was 690 nM.

And the Activity [4]?
The Activity was “Active”.

What about the Activity [5] of the same molecule?
The Activity was “Active”.
